How the values were obtained:
Test in all cases: relative viability (nuclei count vs DMSO), 5 days (fraction); higher = more cells survive
[1] = compound: C1=CC=C(C(=C1)C2=CC=C(C=C2)C3=CSC4=C3C(=C(C(=O)N4)C#N)O)O + CC(C)C[C@H](NC(=O)[C@H](Cc1ccccc1)NC(=O)c1cnccn1)B(O)O [Bortezomib] (partner 0.002 µM)
Method in brief: (§1)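 Five library-drug doses in √10 steps were combined with a fixed anchor-drug dose, or a single drug was given alone, by pin tool to lung cancer cell lines in 1536-well plates the day after seeding. Nuclei were stained and counted after 5 days. Relative viability is the nuclei count in treated wells over that in vehicle wells, taken as the median of duplicate plates.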

TGX 221 + Pemetrexed = compound: CC1=CN2C(=O)C=C(N=C2C(=C1)C(C)NC3=CC=CC=C3)N4CCOCC4 [TGX 221] + Nc1nc2[nH]cc(CCc3ccc(C(=O)N[C@@H](CCC(=O)O)C(=O)O)cc3)c2c(=O)[nH]1 [Pemetrexed] (partner 0.2 µM)
Method in brief: as §1

Ricolinostat + OSI-027 = compound: O=C(CCCCCCNC(=O)c1cnc(N(c2ccccc2)c2ccccc2)nc1)NO [Ricolinostat] + COc1cccc2cc(-c3nc([C@H]4CC[C@H](C(=O)O)CC4)n4ncnc(N)c34)[nH]c12 [OSI-027] (partner 0.5 µM)
Method in brief: as §1

[2] = compound: C1=CC=C(C(=C1)C2=CC=C(C=C2)C3=CSC4=C3C(=C(C(=O)N4)C#N)O)O + C[C@]1(O)C[C@@H](c2nc(-c3ccc4ccc(-c5ccccc5)nc4c3)c3c(N)nccn32)C1 [Linsitinib] (partner 1 µM)
Method in brief: as §1

Cell Line	relative viability ([1]; first compound 0.08 µM)	relative viability ([1]; first compound 0.253 µM)	relative viability ([1]; first compound 2.53 µM)	relative viability ([1]; first compound 8 µM)	relative viability (TGX 221 + Pemetrexed; first compound 0.08 µM)	relative viability (TGX 221 + Pemetrexed; first compound 0.253 µM)	relative viability (TGX 221 + Pemetrexed; first compound 0.8 µM)	relative viability (TGX 221 + Pemetrexed; first compound 2.53 µM)	relative viability (TGX 221 + Pemetrexed; first compound 8 µM)	relative viability (Ricolinostat + OSI-027; first compound 0.08 µM)	relative viability (Ricolinostat + OSI-027; first compound 0.253 µM)	relative viability (Ricolinostat + OSI-027; first compound 0.8 µM)	relative viability (Ricolinostat + OSI-027; first compound 2.53 µM)	relative viability ([2]; first compound 0.08 µM)	relative viability ([2]; first compound 0.253 µM)	relative viability ([2]; first compound 0.8 µM)	relative viability ([2]; first compound 2.53 µM)	relative viability ([2]; first compound 8 µM)	relative viability ([1]; first compound 0.8 µM)
LCLC-97TM1	0.344	0.44	0.572	0.343	0.167	0.169	0.173	0.197	0.179	0.271	0.524	0.541	0.27	0.197	0.203	0.222	0.198	0.164	–
NCI-H1734	0.852	0.787	0.924	0.545	0.459	0.399	0.414	0.436	0.395	0.473	0.673	0.632	0.617	0.734	0.849	0.882	1.01	0.646	1.04
NCI-H661	1.05	0.71	0.678	0.718	0.878	0.919	0.955	0.955	0.853	0.501	0.669	0.712	0.652	0.589	0.607	0.561	0.487	0.471	0.697
SK-LU-1	–	0.83	1.36	1.16	0.923	0.89	0.907	0.898	0.838	0.321	0.431	0.353	0.269	1.31	1.11	1.16	1.19	1.15	1.12
LC-2-ad	1	1.09	1	1.01	0.272	0.282	0.287	0.259	0.265	0.723	0.711	0.635	0.517	0.894	0.889	0.805	0.876	0.751	1.02
NCI-H1355	0.981	1.31	1.12	1.19	1.03	1.02	1.05	0.998	0.893	0.296	0.477	0.404	0.299	0.981	0.746	0.824	0.758	0.625	1.25
NCI-H1793	–	–	–	–	0.667	0.64	0.754	0.604	0.68	–	0.252	0.284	0.221	0.679	1.12	0.747	0.856	0.508	–
H3255	0.79	0.802	0.789	0.686	0.54	0.71	0.487	0.562	0.539	0.496	0.582	0.55	0.629	0.912	1.06	0.854	0.967	0.78	0.646
NCI-H2342	–	–	–	–	0.681	0.792	0.748	0.708	0.754	0.515	0.588	0.575	0.633	–	–	–	–	–	–
